Measured values published in patent US20190209548A1, “LINKED DIARYL COMPOUNDS WITH ANTICANCER PROPERTIES AND METHODS OF USING THE SAME” (University of Maryland, College Park, priority 2014, published 2019).
Read-outs that look alike come from different tables or passages of the source.

Tests used:
PC-3 = test: WST-1 IC50 determination, PC-3; type: cell-based, human
Protocol: (§1) Cell lines and culturing. The following human cell lines were purchased from ATCC (ATCC, Manassas, Va.): prostate cancer cells (PC-3), triple negative breast cancer cells (MDA-MB-231), ovarian cancer cells (OVCAR-3), normal bone marrow (NBM) and normal fibroblast cells (MCR5A). MDA-MB-231 cells were grown at 37° C. with 5% CO2 atmosphere with DMEM (Life technologies, Carlsbad, Calif.) supplemented with heat-inactivated 10% (V/V) fetal bovine serum. OVCAR-3 and PC-3 cells were grown at 37° C. with 5% CO2 atmosphere with RPMI (Life technologies, Carlsbad, Calif.) supplemented with heat-inactivated 10% (V/V) fetal bovine serum. Cell lines were grown and maintained according to ATCC recommendations.
(§2) IC50 determination. Cell lines were seeded into 96-well plates the afternoon prior to treatment. Cell seeding number was determined by growing cells in log phase growth during drug treatment. Approximately 18 hours later, compounds were semi-serially diluted in dimethyl sulfoxide (DMSO) and then growth medium, and added to cells. Plates were incubated for 72 hours prior to addition of WST-1 (Promega, Madison Wis.). Plates were read after 4 additional hours of incubation at 37° C. using a Bio-Tek Synergy HT plate reader (Bio-Tek, Winooski, Vt.). Data was analyzed, graphed and IC50s generated using GraphPad Prism Software (Graphpad, La Jolla, Calif.).
(§3) IC50 determination: For the determination of IC50 for the azolamide class, the same protocol as described previously was followed.

MDA-MB-231 = test: WST-1 IC50 determination, MDA-MB-231; type: cell-based, human
Protocol: as §1, §2, §3

NBM = test: WST-1 IC50 determination, normal bone marrow; type: cell-based, human
Protocol: as §1, §2, §3

MOLM14 = test: WST-1 IC50 determination, MOLM14; type: cell-based; settings: Homo sapiens
Protocol: as §2, §3

U87 = test: IC50 determination, U87; type: cell-based; settings: Homo sapiens, U-87 MG; Glioblastoma; read-out: Anticancer activities, U87
Protocol: as §2, §3

MV4-11 = test: IC50 determination, MV4-11; type: cell-based; settings: Homo sapiens, Acute monocyctic leukemia, read-out: Anticancer activities, MV4-11
Protocol: as §2, §3

[1] = test system: triple-negative breast cancer cells; test: Cancer cell migration; type: cell-based; settings: increasing concentration
From the text: FIG. 36. […] Red=negative control—no FCS in bottom well. Green=DMSO. Blue and pink=increasing concentration of 630-1.

Tolerability studies = type: in vivo; settings: mice, 10 mg/Kg
[2] = Human liver microsome stability; type: in vitro ADME; settings: human, liver microsomes
From the text: An established method to determine the pharmacokinetic clearance of a compound in humans is to measure the degradation of the compound in the presence of human liver microsomes. The following is the half-lives of the four compounds in human liver microsomes: […]

[3] = test system: G-quadruplex DNAs (c-kit1, VEGF, bcl-2 2345 and TBA); test: UV-visible titration with G-quadruplex DNA; type: binding; settings: UV-visible titration conditions
Protocol: UV titration studies of DNA with the triazene ligands, DMZ and Triazene-1. The molar extinction coefficients at 260 nm for 22-mer c-kit1, 18-mer VEGF, 23-mer bcl-2 2345, 15-mer TBA and 20-mer 8 bp AT are as follows 226,700 M^−1 cm^−1, 169,800 M^−1 cm^−1, 227,300 M^−1 cm^−1, 143,300 M^−1 cm^1 and 205,500 M^−1 cm^−1, respectively. The concentration of ligands used in this study was 10 μM and the DNA concentrations were 0, 0.25, 1.5, 3, 5, 6, 7, 8, 9, 10, 20, 30, 40, 50, 100, and 15 μM. The buffer contained 250 mM KCl, 50 mM Tris-HCl (at pH 7.5). The following quadruplex DNA were tested: c-kit1, VEGF, bcl-2 2345, and TBA. Duplex DNA (8 bp AT) was also tested. The sample was first heated up to 95° C. for 5 min without the ligand and then cooled down to room temperature in 15 min. The ligand was then added and the mixture was incubated at 4° C. for ˜12 h before recording the data. In case of Triazene-1 and Triazene-2, the sample mixture contained 1% DMSO.

OVCAR-3 = test: WST-1 IC50 determination, OVCAR-3; type: cell-based, human
Protocol: as §1, §2, §3

THP1 = test: WST-1 IC50 determination, THP1; type: cell-based; settings: Homo sapiens, THP-1; THP1, 72 h; read-out: IC50 for killing Leukemia cell line
Protocol: as §2, §3

MCR5A = test: WST-1 IC50 determination, normal fibroblast; type: cell-based, human; settings: normal fibroblast cell, 72 hours, read-out: IC50 ± SD, MCR5A
Protocol: as §1, §2

c-MYC Pu27 = test: PCR stop assay, Pu27 template; type: biochemical; settings: 10 μM compound
Protocol: (§4) PCR Stop Assay. This assay was performed by modifying a previously published protocol.
(§5) To the PCR reaction mixture (25 μL), 1×PCR buffer (New England Biolabs), 5 μM Pu27 and Pu27rev oligomers, various concentrations of ligands (DMZ, TMPyP4, DMZ1, DMZ9 and DMZ13) were added and incubated at 4° C. for 6 h. After that, 1 mM dNTPs, 5 units of Taq DNA polymerase (New England Biolabs) were added and PCR reactions were performed in a thermocycler, with the following conditions: 94° C. for 3 min, followed by 20 repeated cycles each having 94° C. for 30 s, 58° C. for 30 s, and 72° C. for 30 s. After PCR, amplified products were analyzed on 12% polyacrylamide gel with 1×TBE and SYBR Gold stained. This assay was also performed under the same conditions with Pu27-13,14 and Pu27rev.

Pu27-13,14 = test: PCR stop assay, mutated control template; type: biochemical; settings: 10 μM compound
Protocol: as §4, §5

G-quadruplexes = settings: binding of classic G-tetrad-motif ligand to G-quadruplexes; cited from earlier work
F21T = test: FRET melting assay, F21T; type: binding; settings: 0.2 μM dual-labeled DNA and 0.2 μM TMPyP4
c-MYC = test: FRET melting assay, c-MYC; type: binding; settings: 0.2 μM dual-labeled DNA and 0.2 μM TMPyP4
c-kit2 = test: FRET melting assay, c-kit2; type: binding; settings: 0.2 μM dual-labeled DNA and 0.2 μM TMPyP4
k-RAS21R = test: FRET melting assay, k-RAS21R; type: binding; settings: 0.2 μM dual-labeled DNA and 0.2 μM TMPyP4
duplex = test: FRET melting assay, duplex DNA; type: binding; settings: 0.2 μM dual-labeled DNA and 0.2 μM TMPyP4
SH-SY5Y = settings: read-out: IC50 of cisplatin; cited from earlier work
PNT1 = settings: read-out: IC50 of cisplatin; cited from earlier work
SW872 = settings: read-out: IC50 of cisplatin; cited from earlier work
RD = settings: read-out: IC50 of cisplatin; cited from earlier work
A375 = settings: read-out: IC50 of cisplatin; cited from earlier work
Hep2 = settings: read-out: IC50 of cisplatin; cited from earlier work
MCF-7/DX = settings: read-out: IC50 of cisplatin; cited from earlier work
HT1080 = settings: read-out: IC50 of cisplatin; cited from earlier work
HOS = settings: read-out: IC50 of cisplatin; cited from earlier work
SAOS-2 = settings: read-out: IC50 of cisplatin; cited from earlier work
PC3 = settings: read-out: IC50 of cisplatin; cited from earlier work
PANC-1 = settings: read-out: IC50 of cisplatin; cited from earlier work
A431 = settings: read-out: IC50 of cisplatin; cited from earlier work
U2-OS = settings: read-out: IC50 of cisplatin; cited from earlier work
HT29 = settings: read-out: IC50 of cisplatin; cited from earlier work
CFPAC-1 = settings: read-out: IC50 of cisplatin; cited from earlier work
Calu-3 = settings: read-out: IC50 of cisplatin; cited from earlier work
CAPAN-1 = settings: read-out: IC50 of cisplatin; cited from earlier work
[4] = Homo sapiens, PC-3, prostate cancer, read-out: Anticancer activities, PC3
[5] = Homo sapiens, MDA-MB-231, triple negative breast cancer, read-out: Anticancer activities, TNBC 231
[6] = Homo sapiens, Bone marrow cell, Normal bone marrow cells, read-out: Anticancer activities, NBM
[7] = 72 hours, WST-1, read-out: Anticancer activity IC50 ± SD, OVCAR-3
[8] = 72 hours, WST-1, read-out: Anticancer activity IC50 ± SD, PC-3
[9] = 72 hours, WST-1, read-out: Anticancer activity IC50 ± SD, MDA-MB-231

Compound: N=C(N)c1ccc(/N=N/c2c(N)ncc3ccc(Br)cc23)cc1 [HSW630-1]
- IC50 (PC-3; [4]): 0.59 µM
- IC50 (MDA-MB-231; [5]): 0.48 to 0.92 µM
- IC50 (NBM; [6]): 5.1 µM
- IC50 (MOLM14; MOLM-14, read-out: Anticancer activities, Molm14): 0.14 µM
- IC50 (U87): 0.56 µM
- IC50 (MV4-11): 0.15 µM
- migration of cancer cells [1]: prevents cancer cells from migrating
- migration of cancer cells ([1]; listed as 630-1): can inhibit migration
- tolerability (Tolerability studies): can be tolerated
- half-life ([2]; read-out: NADPH-dependent T½): 3.18 h
- half-life ([2]; read-out: NADPH-independent T½): 2.07 h

Compound: c1ccc(N=NNc2ccccc2)cc1 [Triazene-2]
- self-aggregation [3]: exhibited self-aggregation

Compound: N=C(N)c1ccc(/N=N/c2c(N)ncc3ccccc23)cc1 [HSW308-4]
- IC50 (OVCAR-3; Homo sapiens, OVCAR-3, read-out: IC50 for killing ovarian cancer cell line (OVCAR-3)): 4.2 µM
- IC50 (PC-3; [4]): 1.3 µM
- IC50 (PC-3; Homo sapiens, PC-3, read-out: IC50 for killing prostate cancer cell line (PC-3)): 1 µM
- IC50 (MDA-MB-231; Homo sapiens, MDA-MB-231, read-out: IC50 for killing triple negative breast cancer cell line (231)): 1.9 µM
- IC50 (MDA-MB-231; [5]): 1.85 µM
- IC50 (NBM; [6]): 8.7 µM
- IC50 (MOLM14; MOLM-14, MOLM14, 72 h, read-out: IC50 for killing Leukemia cell line): 0.98 µM
- IC50 (MOLM14; MOLM-14, leukemia, read-out: Anticancer activities, Molm14): 0.98 µM
- IC50 (THP1): 2.6 µM
- IC50 (U87): 1.32 µM
- IC50 (MV4-11): 0.92 µM
- tolerability (Tolerability studies): can be tolerated
- half-life ([2]; read-out: NADPH-dependent T½): 3.27 h
- half-life ([2]; read-out: NADPH-independent T½): > 4 h

Compound: C[n+]1ccc(-c2c3nc(c(-c4cc[n+](C)cc4)c4ccc([nH]4)c(-c4cc[n+](C)cc4)c4ccc([nH]4)c(-c4cc[n+](C)cc4)c4nc2C=C4)C=C3)cc1 [TMPyP4, reference compound]
- IC50 (OVCAR-3; [7]): 14.6 ± 5.7 µM
- IC50 (PC-3; [8]): 14 ± 5.4 µM
- IC50 (MDA-MB-231; [9]): 14.3 ± 4 µM
- IC50 (NBM; normal bone marrow, 72 hours, WST-1, read-out: IC50 ± SD, NBM): 16.8 µM
- IC50 (MCR5A): 15.2 ± 6.6 µM
- polymerization/extension of oligomers Pu27 and Pu27rev (c-MYC Pu27): showed inhibition
- PCR product with non-G-quadruplex template (Pu27-13,14): no PCR product was observed
- Ka (G-quadruplexes): ≈ 5×10^6 M^−1
- ΔTm F21T (F21T): 4.01 ± 0.26 °C
- ΔTm c-MYC (c-MYC): 23.75 ± 0.52 °C
- ΔTm c-kit2 (c-kit2): 3.46 ± 1.03 °C
- ΔTm k-RAS21R (k-RAS21R): 34.71 ± 0.93 °C
- ΔTm duplex (duplex): 1.14 ± 0.52 °C

Compound: N.N.[Cl][Pt][Cl] [Cisplatin]
- IC50 (OVCAR-3; [7]): 4.1 ± 1.8 µM
- IC50 (PC-3; [8]): 10.5 ± 1.3 µM
- IC50 (PC-3; prostate cancer, read-out: Anticancer activities, PC3): 10.5 µM
- IC50 (MDA-MB-231; [9]): 11.7 ± 1 µM
- IC50 (MDA-MB-231; triple negative breast cancer, read-out: Anticancer activities, TNBC 231): 11.7 µM
- IC50 (SH-SY5Y): 2 µM
- IC50 (PNT1): 5 µM
- IC50 (SW872): 5 µM
- IC50 (RD): 6 µM
- IC50 (A375): 6 µM
- IC50 (Hep2): 7 µM
- IC50 (MCF-7/DX): 7 µM
- IC50 (HT1080): 9 µM
- IC50 (HOS): 10 µM
- IC50 (SAOS-2): 11 µM
- IC50 (PC3): 12 µM
- IC50 (PANC-1): 15 µM
- IC50 (A431): 20 µM
- IC50 (U2-OS): 20 µM
- IC50 (HT29): 22 µM
- IC50 (CFPAC-1): 38 µM
- IC50 (Calu-3): > 50 µM
- IC50 (CAPAN-1): > 50 µM
